Consider 35 compounds from patent US6734179B2, “Benzothiazoles” (Hoffmann-La Roche Inc., priority 2001, dated 2004).

Data set [1] has as its target T1, human adenosine A2A receptor (Homo sapiens, UniProt P29274).
T1 construct: expressed in transfected cells; host or cells: CHO cells, semliki forest virus expression system; membrane preparation
Put plainly: [3H]-SCH-58261 binding assay, human adenosine A2A receptor expressed in CHO cell membranes (SPA). The note with it: [3H]-SCH-58261 1 nM, Ki by Cheng-Prussoff equation; for Ki: read-out: hA2 (pKi) (converted). As to the method:
Human Adenosine A2A Receptor
The human adenosine A2A receptor was recombinantly expressed in chinese hamster ovary (CHO) cells using the semliki forest virus expression system. Cells were harvested, washed twice by centrifugation, homogenised and again washed by centrifugation. The final washed membrane pellet was suspended in a Tris (50 mM) buffer containing 120 mM NaCl, 5 mM KCl, 2 mM CaCl2 and 10 mM MgCl2 (pH 7.4) (buffer A). The [^3H]-SCH-58261 (Dionisotti et al., 1997, Br J Pharmacol 121, 353; 1 nM) binding assay was carried out in 96-well plates in the presence of 2.5 μg of membrane protein, 0.5 mg of Ysi-poly-1-lysine SPA beads and 0.1 U adenosine deaminase in a final volume of 200 μl of buffer A. Non-specific binding was defined using xanthine amine congener (XAC; 2 μM). Compounds were tested at 10 concentrations from 10 μM-0.3 nM. All assays were conducted in duplicate and repeated at least two times. Assay plates were incubated for 1 hour at room temperature before centrifugation and then bound ligand determined using a Packard Topcount scintillation counter. IC50 values were calculated using a non-linear curve fitting program and Ki values calculated using the Cheng-Prussoff equation.

T1 sequence (P29274 whole entry): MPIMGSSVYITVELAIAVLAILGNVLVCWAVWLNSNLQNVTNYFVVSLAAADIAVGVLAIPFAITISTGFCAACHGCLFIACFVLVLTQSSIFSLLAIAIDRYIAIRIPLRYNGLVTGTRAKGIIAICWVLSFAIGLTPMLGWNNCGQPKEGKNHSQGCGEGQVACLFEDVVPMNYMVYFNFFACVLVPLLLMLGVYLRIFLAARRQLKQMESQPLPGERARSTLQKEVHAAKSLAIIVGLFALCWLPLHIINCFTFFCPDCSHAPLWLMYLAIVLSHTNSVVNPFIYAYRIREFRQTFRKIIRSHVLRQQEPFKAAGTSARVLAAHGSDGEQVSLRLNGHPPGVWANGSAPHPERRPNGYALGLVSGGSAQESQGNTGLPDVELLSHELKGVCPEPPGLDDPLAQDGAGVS

Turning to `COc1ccc(C2CCCCO2)c2sc(NC(=O)c3ccnc(C)c3)nc12` (centres unmarked) [Example 41, N-[4-Methoxy-7-(tetrahydro-pyran-2-yl)-benzothiazol-2-yl]-2-methyl-isonicotinamide], the Ki in data set [1] is 3.39 nM. On the same count and under the same terms, to `COc1ccc(C2CCOCC2)c2sc(NC(=O)c3ccnc(N4CCOCC4)c3)nc12` [Example 6, N-[4-Methoxy-7-(tetrahydro-pyran-4-yl)-benzothiazol-2-yl]-2-morpholin-4-yl-isonicotinamide] belongs 0.759 nM; to `COc1ccc(C2CCOCC2)c2sc(NC(=O)c3ccc(CCl)cc3)nc12` [Example 7, 4-Chloromethyl-N-[4-methoxy-7-(tetrahydro-pyran-4-yl)-benzothiazol-2-yl]-benzamide], 1.1 nM.

Regarding `COc1ccc(C2CCN(C(C)=O)CC2)c2sc(NC(=O)c3ccc(C)cc3)nc12` [Example 19, N-[7-(1-Acetyl-piperidin-4-yl)-4-methoxy-benzothiazol-2-yl]-4-methyl-benzamide], the Ki in data set [1] is 3.98 nM. In the case of `COC(=O)Nc1nc2c(OC)ccc(C3=CCCCC3)c2s1` [Example 22, (7-Cyclohex-1-enyl-4-methoxy-benzothiazol-2-yl)-carbamic acid methyl ester], the melting point was in the range of 164 to 173 °C. Moreover, in data set [1], the Ki was 10 nM. As for `COc1ccc(C2CCN(C(C)=O)CC2)c2sc(NC(=O)c3ccc(F)cc3)nc12` [Example 12, N-[7-(1-Acetyl-piperidin-4-yl)-4-methoxy-benzothiazol-2-yl]-4-fluoro-benzamide], in data set [1], the Ki was 3.16 nM.

Regarding `CCc1cc(C(=O)Nc2nc3c(OC)ccc(C4CCOCC4)c3s2)ccn1` [Example 33, 2-Ethyl-N-[4-methoxy-7-(tetrahydro-pyran-4-yl)-benzothiazol-2-yl]-isonicotinamide], in data set [1], the Ki was 1.66 nM. On the same count and under the same terms, the same measure for `COc1ccc(C2CCOCC2)c2sc(NC(=O)c3ccnc(C)c3)nc12` [Example 5, N-[4-Methoxy-7-(tetrahydro-pyran-4-yl)-benzothiazol-2-yl]-2-methyl-isonicotinamide]: 2.82 nM; for `COC(=O)Nc1nc2c(OC)ccc(C3CCOCC3)c2s1` [Example 2, [4-Methoxy-7-(tetrahydro-pyran-4-yl)-benzothiazol-2-yl]-carbamic acid methyl ester]: 11.5 nM; for `COc1ccc(C2CCCCO2)c2sc(NC(=O)c3ccnc(N4CCOCC4)c3)nc12` (centres unmarked) [Example 42, N-[4-Methoxy-7-(tetrahydro-pyran-2-yl)-benzothiazol-2-yl]-2-morpholin-4-yl-isonicotinamide]: 2.04 nM.

As to `COc1ccc(C2CCOCC2)c2sc(NC(=O)c3ccc(F)cc3)nc12` [Example 3, 4-Fluoro-N-[4-methoxy-7-(tetrahydro-pyran-4-yl)-benzothiazol-2-yl]-benzamide], the Ki in data set [1] was 1.41 nM.

Consider `COCCN(C)Cc1ccc(C(=O)Nc2nc3c(OC)ccc(C4CCN(C(C)=O)CC4)c3s2)cc1` [Example 18, N-[7-(1-Acetyl-piperidin-4-yl)-4-methoxy-benzothiazol-2-yl]-4-{[(2-methoxy-ethyl)-methylamino]-methyl}-benzamide], for which the Ki in data set [1] is 7.94 nM.

As to `COc1ccc(C2=CCN(C(C)=O)CC2)c2sc(NC(=O)c3ccc(F)cc3)nc12` [Example 11, N-[7-(1-Acetyl-1,2,3,6-tetrahydro-pyridin-4-yl)-4-methoxy-benzothiazol-2-yl]-4-fluoro-benzamide], the Ki in data set [1] is 5.01 nM.

For `COc1ccc(C2CCOCC2)c2sc(NC(=O)c3ccnc(CN4CCCC4)c3)nc12` [Example 43, N-[4-Methoxy-7-(tetrahydro-pyran-4-yl)-benzothiazol-2-yl]-2-pyrrolidin-1-ylmethyl-isonicotinamide], the melting point is 200 to 202 °C. In data set [1], the Ki is 1.23 nM. As to `CCCc1cc(C(=O)Nc2nc3c(OC)ccc(C4CCOCC4)c3s2)ccn1` [Example 34, N-[4-Methoxy-7-(tetrahydro-pyran-4-yl)-benzothiazol-2-yl]-2-propyl-isonicotinamide], in data set [1], the Ki was 1.82 nM.

In the case of `COc1ccc(C2CCOCC2)c2sc(NC(=O)c3ccnc(C(C)C)c3)nc12` [Example 36, 2-Isopropyl-N-[4-methoxy-7-(tetrahydro-pyran-4-yl)-benzothiazol-2-yl]-isonicotinamide], the Ki in data set [1] was 1.17 nM.

On to `COc1cc(C(=O)Nc2nc3c(OC)ccc(C4CCOCC4)c3s2)ccn1` [Example 31, 2-Methoxy-N-[4-methoxy-7-(tetrahydro-pyran-4-yl)-benzothiazol-2-yl]-isonicotinamide], for which the Ki in data set [1] is 1.45 nM. Consider `COc1ccc(C2CCCCC2)c2sc(NC(=O)c3ccnc(CN4CCCC4)c3)nc12` [Example 25, N-(7-Cyclohexyl-4-methoxy-benzothiazol-2-yl)-2-pyrrolidin-1-yl-methyl-isonicotinamide], for which the “hA2 (pKi)” value in data set [1] came out at 8.80.

In the case of `COCCN(C)c1cc(C(=O)Nc2nc3c(OC)ccc(C4CCOCC4)c3s2)ccn1` [Example 47, 2-[(2-Methoxy-ethyl)-methyl-amino]-N-[4-methoxy-7-(tetrahydro-pyran-4-yl)-benzothiazol-2-yl]-isonicotinamide], the Ki in data set [1] is 1.51 nM. The same measure, in the same setting: to `COc1ccc(C2CCOCC2)c2sc(NC(=O)c3ccnc(Br)c3)nc12` [Example 4, 2-Bromo-N-[4-methoxy-7-(tetrahydro-pyran-4-yl)-benzothiazol-2-yl]-isonicotinamide] belongs 1.74 nM; to `COCCN(C)Cc1ccc(C(=O)Nc2nc3c(OC)ccc(C4CCOCC4)c3s2)cc1` [Example 8, 4-{[(2-Methoxy-ethyl)-methyl-amino]-methyl}-N-[4-methoxy-7-(tetrahydro-pyran-4-yl)-benzothiazol-2-yl]-benzamide], 2.4 nM; to `COc1ccc(C2CCOCC2)c2sc(NC(=O)c3ccc(C)nc3)nc12` [Example 28, N-[4-Methoxy-7-(tetrahydro-pyran-4-yl)-benzothiazol-2-yl]-6-methyl-nicotinamide], 1.07 nM.

In the case of `COc1ccc(C2CCCCC2)c2sc(NC(=O)c3ccc(F)cc3)nc12` [Example 23, N-(7-Cyclohexyl-4-methoxy-benzothiazol-2-yl)-4-fluoro-benzamide], the melting point was in the range of 192 to 195 °C. For the same compound, the Ki in data set [1] is 0.2 nM. As to `COc1ccc(C2CCCCO2)c2sc(NC(=O)c3ccc(F)cc3)nc12` (centres unmarked) [Example 40, 4-Fluoro-N-[4-methoxy-7-(tetrahydro-pyran-2-yl)-benzothiazol-2-yl]-benzamide], the Ki in data set [1] is 3.39 nM. Still for that read-out and setting: to `COc1cc(C(=O)Nc2nc3c(OC)ccc(C4CCN(C(C)=O)CC4)c3s2)ccn1` [Example 21, N-[7-(1-Acetyl-piperidin-4-yl)-4-methoxy-benzothiazol-2-yl]-2-methoxy-isonicotinamide] belongs 3.98 nM; to `COCCNc1cc(C(=O)Nc2nc3c(OC)ccc(C4CCOCC4)c3s2)ccn1` [Example 46, 2-(2-Methoxy-ethylamino)-N-[4-methoxy-7-(tetrahydro-pyran-4-yl)-benzothiazol-2-yl]-isonicotinamide], 0.871 nM; to `COc1ccc(C2CCCCO2)c2sc(NC(=O)c3ccnc(Br)c3)nc12` (centres unmarked) [Example 39, 2-Bromo-N-[4-methoxy-7-(tetrahydro-pyran-2-yl)-benzothiazol-2-yl]-isonicotinamide], 3.8 nM. The same measure, in the same setting: the same measure for `COc1ccc(C2CCOCC2)c2sc(NC(=O)N3CCOCC3)nc12` [Example 44, Morpholine-4-carboxylic acid [4-methoxy-7-(tetrahydro-pyran-4-yl)-benzothiazol-2-yl]-amide]: 1.51 nM; for `COCCN(C)Cc1ccc(C(=O)Nc2nc3c(OC)ccc(C4CCCCC4)c3s2)cc1` [Example 24, N-(7-Cyclohexyl-4-methoxy-benzothiazol-2-yl)-4-{[(2-methoxy-ethyl)-methyl-amino]-methyl}-benzamide]: 1.58 nM. Regarding `COc1ccc(C2CCN(C(C)=O)CC2)c2sc(NC(=O)c3ccnc(C)c3)nc12` [Example 17, N-[7-(1-Acetyl-piperidin-4-yl)-4-methoxy-benzothiazol-2-yl]-2-methyl-isonicotinamide], the Ki in data set [1] is 6.31 nM. Same read-out and setting: the same measure for `CCOc1cc(C(=O)Nc2nc3c(OC)ccc(C4CCOCC4)c3s2)ccn1` [Example 32, 2-Ethoxy-N-[4-methoxy-7-(tetrahydro-pyran-4-yl)-benzothiazol-2-yl]-isonicotinamide]: 2.75 nM. The same measure, in the same setting: to `COc1ccc(C2CCN(C(C)=O)CC2)c2sc(NC(=O)c3ccnc(N4CCOCC4)c3)nc12` [Example 20, N-[7-(1-Acetyl-piperidin-4-yl)-4-methoxy-benzothiazol-2-yl]-2-morpholin-4-yl-isonicotinamide] belongs 2.51 nM; to `COC(=O)Nc1nc2c(OC)ccc(C3=CCOCC3)c2s1` [Example 1, [7-(3,6-Dihydro-2H-pyran-4-yl)-4-methoxy-benzothiazol-2-yl]-carbamic acid methyl ester], 4.9 nM. In the case of `COc1ccc(C2CCNCC2)c2sc(NC(=O)N3CCOCC3)nc12.Cl`, the melting point is 314 to 315 °C. As for `COc1ccc(C2=CCNCC2)c2sc(NC(=O)c3ccc(F)cc3)nc12.Cl`, the melting point lay in the range of 268 to 275 °C.

What is called melting point is the temperature, or range, at which the solid turns liquid.
